ChEMBL document CHEMBL1201862, “PubChem BioAssay data set” (2004)
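Step 1: Grow cells in 96-well plates. Step 2: Expose to compound for 48 hours at 5 concentrations. Step 3: Interpolate endpoints linearly; if unreached, use highest concentration. GI50 marks 50% less growth.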 Active and inactive are the calls of the source. Cut-off read from the data, not from the text of the source: active = GI50 up to about 1.1 µM and inactive = higher.

Key:
Assay in all cases: growth of human tumour cells (NCI), 48 h
HT-29 = tested on: HT-29
T47D = tested on: T47D
NCI/ADR-RES = tested on: NCI/ADR-RES
M14 = tested on: M14
TK-10 = tested on: TK-10
UO-31 = tested on: UO-31
SNB-19 = tested on: SNB-19
A498 = tested on: A498
SF-268 = tested on: SF-268
UACC-62 = tested on: UACC-62
LOX IMVI = tested on: LOX IMVI
HCT-116 = tested on: HCT-116
SR = tested on: SR
U-251 = tested on: U-251
MCF7 = tested on: MCF7
RXF 393 = tested on: RXF 393
SNB-75 = tested on: SNB-75
NCI-H460 = tested on: NCI-H460
Hs-578T = tested on: Hs-578T
OVCAR-4 = tested on: OVCAR-4
DU-145 = tested on: DU-145
NCI-H226 = tested on: NCI-H226
COLO 205 = tested on: COLO 205
BT-549 = tested on: BT-549
SW-620 = tested on: SW-620
MDA-MB-231 = tested on: MDA-MB-231
SK-MEL-2 = tested on: SK-MEL-2
HL-60 = tested on: HL-60
SK-OV-3 = tested on: SK-OV-3
SK-MEL-5 = tested on: SK-MEL-5
CCRF-CEM = tested on: CCRF-CEM
EKVX = tested on: EKVX
SF-539 = tested on: SF-539
NCI-H23 = tested on: NCI-H23
786-0 = tested on: 786-0
MDA-MB-435 = tested on: MDA-MB-435
OVCAR-3 = tested on: OVCAR-3
OVCAR-5 = tested on: OVCAR-5
CAKI-1 = tested on: CAKI-1
IGROV-1 = tested on: IGROV-1
SK-MEL-28 = tested on: SK-MEL-28
ACHN = tested on: ACHN
HOP-92 = tested on: HOP-92
OVCAR-8 = tested on: OVCAR-8
MOLT-4 = tested on: MOLT-4
RPMI-8226 = tested on: RPMI-8226
HCT-15 = tested on: HCT-15
KM12 = tested on: KM12
MDA-N = tested on: MDA-N
UACC-257 = tested on: UACC-257
PC-3 = tested on: PC-3
SN12C = tested on: SN12C
A549 = tested on: A549
HOP-62 = tested on: HOP-62
SF-295 = tested on: SF-295
K562 = tested on: K562
Malme-3M = tested on: Malme-3M
NCI-H522 = tested on: NCI-H522
HCC 2998 = tested on: HCC 2998

Structure (SMILES): CCN(CC)CCNc1ccc([N+](=O)[O-])c2nc3ccccc3c(N)c12
- GI50 (HT-29): 0.359 µM (active)
- GI50 (T47D): 0.662 µM (active)
- GI50 (NCI/ADR-RES): 0.401 µM (active)
- GI50 (M14): 0.456 µM (active)
- GI50 (TK-10): 0.685 µM (active)
- GI50 (UO-31): 0.597 µM (active)
- GI50 (SNB-19): 0.615 µM (active)
- GI50 (A498): 1.22 µM (inactive)
- GI50 (SF-268): 0.482 µM (active)
- GI50 (UACC-62): 1.01 µM (active)
- GI50 (LOX IMVI): 0.333 µM (active)
- GI50 (HCT-116): 0.127 µM (active)
- GI50 (SR): 0.243 µM (active)
- GI50 (U-251): 0.682 µM (active)
- GI50 (MCF7): 0.364 µM (active)
- GI50 (RXF 393): 0.254 µM (active)
- GI50 (SNB-75): 1.17 µM (inactive)
- GI50 (NCI-H460): 0.291 µM (active)
- GI50 (Hs-578T): 0.175 µM (active)
- GI50 (OVCAR-4): 0.422 µM (active)
- GI50 (DU-145): 2.94 µM (inactive)
- GI50 (NCI-H226): 1.35 µM (inactive)
- GI50 (COLO 205): 0.162 µM (active)
- GI50 (BT-549): 0.791 µM (active)
- GI50 (SW-620): 0.208 µM (active)
- GI50 (MDA-MB-231): 0.41 µM (active)
- GI50 (SK-MEL-2): 0.214 µM (active)
- GI50 (HL-60): 0.297 µM (active)
- GI50 (SK-OV-3): 0.726 µM (active)
- GI50 (SK-MEL-5): 0.166 µM (active)
- GI50 (CCRF-CEM): 0.251 µM (active)
- GI50 (EKVX): 0.428 µM (active)
- GI50 (SF-539): 0.446 µM (active)
- GI50 (NCI-H23): 0.485 µM (active)
- GI50 (786-0): 0.361 µM (active)
- GI50 (MDA-MB-435): 0.481 µM (active)
- GI50 (OVCAR-3): 0.701 µM (active)
- GI50 (OVCAR-5): 0.621 µM (active)
- GI50 (CAKI-1): 1.23 µM (inactive)
- GI50 (IGROV-1): 0.377 µM (active)
- GI50 (SK-MEL-28): 0.998 µM (active)
- GI50 (ACHN): 0.155 µM (active)
- GI50 (HOP-92): 0.755 µM (active)
- GI50 (OVCAR-8): 0.361 µM (active)
- GI50 (MOLT-4): 0.223 µM (active)
- GI50 (RPMI-8226): 0.311 µM (active)
- GI50 (HCT-15): 0.41 µM
- GI50 (KM12): 0.293 µM (active)
- GI50 (MDA-N): 0.504 µM (active)
- GI50 (UACC-257): 0.931 µM (active)
- GI50 (PC-3): 0.372 µM (active)
- GI50 (SN12C): 0.441 µM (active)
- GI50 (A549): 0.385 µM (active)
- GI50 (HOP-62): 1.48 µM (inactive)
- GI50 (SF-295): 0.498 µM (active)
- GI50 (K562): 0.316 µM (active)

Structure (SMILES): N#CC(Cc1ccccc1)N(CCC1=CCCCC1)C(c1ccccc1)c1ccccc1 (centres undefined)
- GI50 (HT-29): 12.8 µM (inactive)
- GI50 (T47D): 42.3 µM (inactive)
- GI50 (NCI/ADR-RES): > 100 µM (inactive)
- GI50 (M14): 18.8 µM (inactive)
- GI50 (TK-10): > 100 µM (inactive)
- GI50 (UO-31): 50.6 µM (inactive)
- GI50 (SNB-19): > 100 µM (inactive)
- GI50 (A498): > 100 µM (inactive)
- GI50 (SF-268): > 100 µM (inactive)
- GI50 (UACC-62): > 100 µM (inactive)
- GI50 (HCT-116): 15.8 µM (inactive)
- GI50 (U-251): 69.5 µM (inactive)
- GI50 (MCF7): 42.4 µM (inactive)
- GI50 (RXF 393): 27.9 µM (inactive)
- GI50 (SNB-75): > 100 µM (inactive)
- GI50 (NCI-H460): 33.5 µM (inactive)
- GI50 (Hs-578T): 69.3 µM (inactive)
- GI50 (OVCAR-4): > 100 µM (inactive)
- GI50 (DU-145): > 100 µM (inactive)
- GI50 (COLO 205): 35.2 µM (inactive)
- GI50 (BT-549): > 100 µM (inactive)
- GI50 (SW-620): 38.9 µM (inactive)
- GI50 (MDA-MB-231): > 100 µM (inactive)
- GI50 (SK-MEL-2): > 100 µM (inactive)
- GI50 (SK-OV-3): > 100 µM (inactive)
- GI50 (SK-MEL-5): 28 µM (inactive)
- GI50 (Malme-3M): > 100 µM (inactive)
- GI50 (CCRF-CEM): 0.456 µM (active)
- GI50 (EKVX): 35.7 µM (inactive)
- GI50 (NCI-H23): 60.1 µM (inactive)
- GI50 (786-0): > 100 µM (inactive)
- GI50 (MDA-MB-435): 41.1 µM (inactive)
- GI50 (OVCAR-3): > 100 µM (inactive)
- GI50 (OVCAR-5): 95.7 µM (inactive)
- GI50 (CAKI-1): > 100 µM (inactive)
- GI50 (IGROV-1): > 100 µM (inactive)
- GI50 (SK-MEL-28): 77.3 µM (inactive)
- GI50 (ACHN): > 100 µM (inactive)
- GI50 (NCI-H522): 15.2 µM (inactive)
- GI50 (HCC 2998): 32 µM (inactive)
- GI50 (HOP-92): 28.1 µM (inactive)
- GI50 (OVCAR-8): > 100 µM (inactive)
- GI50 (MOLT-4): 66.8 µM (inactive)
- GI50 (RPMI-8226): 33.3 µM (inactive)
- GI50 (HCT-15): 42.9 µM
- GI50 (KM12): > 100 µM (inactive)
- GI50 (MDA-N): 24.4 µM (inactive)
- GI50 (UACC-257): 43 µM (inactive)
- GI50 (PC-3): 73.6 µM (inactive)
- GI50 (A549): 70.3 µM (inactive)
- GI50 (HOP-62): > 100 µM (inactive)
- GI50 (SF-295): > 100 µM (inactive)
- GI50 (K562): 80.4 µM (inactive)
